# Measurements as given in publication PMC12281487, “Discovery and Validation of a Novel Class of Necroptosis Inhibitors Targeting RIPK1” (ACS Chemical Biology, 2025).
# Tests used:
# kinase domain of RIPK1 = target: T1, kinase domain of RIPK1 (Homo sapiens, UniProt Q13546); experiment: SPR binding assay
# T1 construct: recombinant human kinase domain of RIPK1 [RIPK1 (8-322)-Avi-His]; His (C); made in house; host or cells: Sf21 insect cells (baculovirus, Bac-to-Bac), co-expressed with Cdc37
# T1 sequence (Q13546 8-322): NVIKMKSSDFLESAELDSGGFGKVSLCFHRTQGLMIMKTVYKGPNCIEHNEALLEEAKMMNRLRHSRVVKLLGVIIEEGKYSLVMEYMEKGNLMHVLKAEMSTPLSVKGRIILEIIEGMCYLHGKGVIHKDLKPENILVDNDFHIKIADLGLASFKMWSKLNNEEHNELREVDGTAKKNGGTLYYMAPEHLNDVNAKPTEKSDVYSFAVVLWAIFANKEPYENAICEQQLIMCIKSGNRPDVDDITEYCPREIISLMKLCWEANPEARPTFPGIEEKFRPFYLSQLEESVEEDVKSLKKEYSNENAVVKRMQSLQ
# Method: Biotinylated recombinant human kinase domain of RIPK1 [RIPK1 (8-322)-Avi-His] was produced in Sf21 cells using baculovirus infection (Bac-to-Bac system, Thermo Fisher Scientific). Briefly, the RIPK1 (8-322)-Avi-His baculovirus was inoculated into Sf21 cells at 1.5 × 10^6 cells/mL, with 1 mL of virus added per 500 mL of cells for P2 virus generation. The cells were grown at 27 °C, 140 rpm for 72 h. RIPK1 was co-expressed with Cdc37 at a 4:1 (RIPK1/Cdc37) v/v virus ratio in Sf21 cells by inoculation with P2 virus (25 mL per 500 mL bottle). The cells were grown at 27 °C while shaking at 140 rpm for 48 h before being harvested by centrifugation at 6500 rpm and 4 °C for 15 min and stored at −80 °C before further purification. 25 μM of Nec-1s (ab221984, Abcam) was added to the culture medium at time of viral infection to stabilize protein.
# Briefly, RIPK1 kinase domain was immobilized on a streptavidin-coated sensor chip (Cytiva). The surface was washed with 10 mM NaOH, 1 M NaCl, followed by immobilization of the protein. […] The reference spot was treated as described, omitting the injection of RIPK1. Compound concentration series was injected over the immobilized protein in increasing concentrations using multi cycle or single cycle kinetics in running buffer (10 mM HEPES, 150 mM NaCl, 0.05% Tween20, 0.1% DMSO, pH 7.4). A 1:1 Langmuir interaction model was fitted to the experimental traces, enabling determination of k on, k off, and K D.
# recombinant hRIPK1 = target: T2, recombinant hRIPK1 (Homo sapiens, UniProt Q13546); experiment: ADP-Glo kinase assay; type: biochemical; conditions: for IC50: GST-RIPK1 75 nM
# T2 construct: Th (between GST and residue 1); purchased BPS Bioscience 40371
# T2 sequence (Q13546 1-327): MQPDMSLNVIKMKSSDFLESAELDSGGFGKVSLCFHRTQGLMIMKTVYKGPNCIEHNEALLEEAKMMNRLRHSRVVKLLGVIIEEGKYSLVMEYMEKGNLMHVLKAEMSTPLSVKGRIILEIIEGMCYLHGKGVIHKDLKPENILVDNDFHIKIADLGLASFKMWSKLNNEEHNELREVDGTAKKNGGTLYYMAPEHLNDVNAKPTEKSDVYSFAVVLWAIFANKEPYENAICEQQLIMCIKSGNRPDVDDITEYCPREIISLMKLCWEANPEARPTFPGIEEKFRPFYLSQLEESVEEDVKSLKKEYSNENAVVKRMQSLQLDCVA
# Method: Compound potency and mode of inhibition against RIPK1 kinase activity were determined by using an ADP-Glo kinase assay (Promega). The assay was carried out in accordance with the manufacturer’s protocol. The initial kinase reaction was performed by incubating recombinant hRIPK1 (GST-Th-1-327 from BPS Bioscience ref 40371, 75 nM) with the inhibitor (0–100 μM) and ATP (0–500 μM) for 4 h at 24 °C in kinase assay buffer (50 mM HEPES pH 7.5, 50 mM NaCl, 30 mM MgCl2, 0.5 mg mL^–1 BSA, 0.02% CHAPS, and 4 mM DTT). Following this reaction, ADP-Glo Reagent and Kinase Detection Reagent were successively added and incubated for 1 and 0.5 h at 24 °C, respectively. A […] (kinase assay reaction/ADP-Glo Reagent/Kinase Detection Reagent) volume ratio of the kit’s components was used. Bioluminescence was measured on a Varioskan LUX multimode microplate reader with SkanIt Software. Experiments were conducted in triplicate. Concentration response curves and IC50 values were generated from nonlinear regression fits performed on GraphPad Prism 9.1.1. Additionally, the produced ADP concentration values were divided by the kinase reaction incubation time to calculate reaction velocity values and generate velocity curves. Velocity curves were fitted in Michaelis–Menten model on GraphPad Prism 9.1.1 to calculate the maximum velocity (v max) and Michaelis–Menten constant (K M) parameters.
# [1] = tested on: I2.1 FADD–/– human Jurkat cells; experiment: IncuCyte necroptosis assay in I2.1 cells; conditions: Homo sapiens, Jurkat, read-out: EC50 (95% CI), necroptosis inhibition
# Method: A cell-based assay was established to monitor necroptosis in I2.1 cells using the IncuCyte S3 live cell microscopy platform (Figure S1a). Necroptosis was induced by treatment with TNF, and Sytox Green was used to monitor membrane permeabilization over time as an indicator of progressive necroptotic cell death (Figure S1b–d), allowing determination of the EC50 of candidate necroptosis inhibitors.
# I2.1 cells were seeded in a sterile 96-well plate (Greiner) at 20,000 cells per well and incubated at 37 °C overnight. The cells were treated with a final concentration of 600 pM TNF, 1 μM Sytox Green, and compounds in a dose-dependent manner. Wells containing TNF and Sytox Green served as positive control. Wells containing DMSO and Sytox Green served as a negative control. The plate was placed into an IncuCyte S3 Live Cell Analysis System (Sartorius) and readings for phase and green fluorescence were taken every hour for 24 h, with 4 images per well. The images were analyzed with IncuCyte 2021C software and the Green Integrated Intensity Per Image/Phase Area Per Image (GCU × μm^2/image/μm^2/image or GP) was exported. The background at t = 0 h was subtracted, and the linear slope (t = 3–7 h) was calculated by plotting GP against time. The percent inhibition of necroptosis was determined by normalizing to the positive and negative controls and graphing against the [compound]. EC50 values were determined using Prism 10 for each replicate, which were then used to calculate the geometric mean EC50 and associated 95% CIs.
# I2.1 cells in a 96-well plate were treated with TNF to induce necroptosis, a dilution series of the candidate necroptosis inhibitor and Sytox Green to monitor cell death. Plates were placed in the IncuCyte® and imaged every hour for 24 h. Cell death was measured over time and used to determine the proportion of necroptotic cells compared to those without necroptosis induction or not treated with an inhibitor. The linear portion of the graph was used to determine an initial rate for calculation of the EC50. TNF with Sytox Green and Sytox Green alone were used as positive and negative controls, respectively. […] EC50 values are expressed as the geometric mean with a 95% confidence interval (CI) of at least three biological replicates.
smiles,measurement,setting,value
"CN1C(=O)C(Cc2c[nH]c3ccccc23)NC1=S (stereo not shown) [Nec-1, Necrostatin 1]",koff,"kinase domain of RIPK1; 1:1 fitting, 20 °C",0.011 ± 0.002 s⁻¹
same,kon,"kinase domain of RIPK1; 1:1 fitting, 20 °C",260000 M⁻¹ s⁻¹
same,Kd,"kinase domain of RIPK1; absence of Nec-1, read-out: Binding affinity (pKD) (converted)",44.7 nM
same,IC50,recombinant hRIPK1; ATP concentration 10 μM,2700 nM
same,IC50,recombinant hRIPK1; ATP concentration 500 μM,8100 nM
same,mode of inhibition with respect to ATP,recombinant hRIPK1; ATP concentrations 10–500 μM,competition with ATP
same,EC50,[1],750 nM
